Results taken from patent US12077503B2, “Substituted cyclic amides and their use as herbicides” (FMC CORPORATION, priority 2015, dated 2024).

What was measured:
Type in all cases: in vivo
[1] = tested on: wheat (Triticum aestivum); experiment: Test A postemergence; details: Triticum aestivum, post-emergence, 240 h, Postemergence
Summary of the method: (§1)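 Preemergence soil spray on seeded pots or post-emergence spray on 1–2 leaf plants, in loam–sand blend. Greenhouse ~10 d. Visual rating 0–100 against untreated plants.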

[2] = tested on: giant foxtail (Setaria faberii); experiment: Test A postemergence; details: Setaria faberi, post-emergence, 240 h, Postemergence
Summary of the method: as §1

[3] = tested on: pigweed (Amaranthus retroflexus); experiment: Test A postemergence; details: Amaranthus retroflexus, post-emergence, 240 h, Postemergence
Summary of the method: as §1

Kochia (Kochia scoparia) [4] = experiment: Test A postemergence; details: Bassia scoparia, post-emergence, 240 h, Postemergence
Summary of the method: as §1

[5] = tested on: Galium (catchweed bedstraw, Galium aparine); experiment: Test A postemergence; details: Galium, post-emergence, 240 h, Postemergence
Summary of the method: as §1

[6] = tested on: giant foxtail (Setaria faberii); experiment: Test A preemergence; details: Setaria faberi, pre-emergence, 240 h, preemergence, 0 to 100 scale where 0 is no effect and 100 is complete control, read-out: Foxtail, Giant plant response rating
Summary of the method: as §1

[7] = tested on: pigweed (Amaranthus retroflexus); experiment: Test A preemergence; details: Amaranthus retroflexus, pre-emergence, 240 h, preemergence, 0 to 100 scale where 0 is no effect and 100 is complete control, read-out: Pigweed plant response rating
[8] = tested on: ragweed (common ragweed, Ambrosia elatior); experiment: Test A preemergence; details: Ambrosia artemisiifolia, pre-emergence, 240 h, preemergence, 0 to 100 scale where 0 is no effect and 100 is complete control, read-out: Ragweed plant response rating
Summary of the method: as §1

Kochia (Kochia scoparia) [9] = experiment: Test A preemergence; details: Bassia scoparia, pre-emergence, 240 h, preemergence, 0 to 100 scale where 0 is no effect and 100 is complete control, read-out: Kochia plant response rating
Summary of the method: as §1

[10] = tested on: barnyardgrass (Echinochloa crus-galli); experiment: Test A preemergence; details: Echinochloa crus-galli, pre-emergence, 240 h, preemergence, 0 to 100 scale where 0 is no effect and 100 is complete control, read-out: Barnyardgrass plant response rating
Summary of the method: as §1

[11] = tested on: ryegrass, Italian (Italian ryegrass, Lolium multiflorum); experiment: Test A preemergence; details: Lolium multiflorum, pre-emergence, 240 h, preemergence, 0 to 100 scale where 0 is no effect and 100 is complete control, read-out: Ryegrass, Italian plant response rating
Summary of the method: as §1

rice (Oryra sativa) = experiment: Test B flooded paddy test; details: Oryza sativa, 250 g ai/ha, Flood; 0 to 100 scale where 0 is no effect and 100 is complete control; read-out: Rice plant response rating
Summary of the method: (§2)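 Compound goes directly into floodwater once pots are flooded 3 cm above soil, targeting plants at two leaves; the water depth is then held for the test duration. Plants sit 13–15 d in a greenhouse and are rated visually, 100 denoting complete control.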

[12] = tested on: ducksalad (Heteranthera limosa); experiment: Test B flooded paddy test; details: Heteranthera limosa, 250 g ai/ha, Flood; 0 to 100 scale where 0 is no effect and 100 is complete control; read-out: Ducksalad plant response rating
Summary of the method: as §2

[13] = tested on: sedge, umbrella (small-flower umbrella sedge, Cyperus difformis); experiment: Test B flooded paddy test; details: Cyperus difformis, 250 g ai/ha, Flood; 0 to 100 scale where 0 is no effect and 100 is complete control; read-out: Sedge, Umbrella plant response rating
Summary of the method: as §2

[14] = tested on: barnyardgrass (Echinochloa crus-galli); experiment: Test B flooded paddy test; details: Echinochloa crus-galli, 250 g ai/ha, Flood; 0 to 100 scale where 0 is no effect and 100 is complete control; read-out: Barnyardgrass plant response rating
Summary of the method: as §2

[15] = 125 g ai/ha, visual injury rating, approximately 10 d

O=C1NC[C@H](c2nccc(C(F)(F)F)n2)[C@H]1C(=O)Nc1ccccc1F [Compound 1304]
0%: plant injury at 125 g/ha ([1]; 125 g ai/ha, visual rating about 10 d after treatment, read-out: Wheat plant response rating (0 to 100 scale)) | plant injury at 500 g/ha ([1]; 500 g ai/ha, visual injury, 0 to 100 scale (0 no effect, 100 complete control), approx. 10 d, read-out: Plant response rating, Wheat) | pest or weed control at 125 g/ha ([2]; 125 g ai/ha, visual rating about 10 d after treatment, read-out: Foxtail, Giant plant response rating (0 to 100 scale)) | pest or weed control at 500 g/ha ([2]; 500 g ai/ha, visual injury, 0 to 100 scale (0 no effect, 100 complete control), approx. 10 d, read-out: Plant response rating, Foxtail, Giant) | pest or weed control at 125 g/ha ([3]; 125 g ai/ha, visual rating about 10 d after treatment, read-out: Pigweed plant response rating (0 to 100 scale)) | pest or weed control at 500 g/ha ([3]; 500 g ai/ha, visual injury, 0 to 100 scale (0 no effect, 100 complete control), approx. 10 d, read-out: Plant response rating, Pigweed) | pest or weed control at 125 g/ha (Kochia (Kochia scoparia) [4]; 125 g ai/ha, visual rating about 10 d after treatment, read-out: Kochia plant response rating (0 to 100 scale)) | pest or weed control at 500 g/ha (Kochia (Kochia scoparia) [4]; 500 g ai/ha, visual injury, 0 to 100 scale (0 no effect, 100 complete control), approx. 10 d, read-out: Plant response rating, Kochia) | pest or weed control at 125 g/ha ([5]; 125 g ai/ha, visual rating about 10 d after treatment, read-out: Galium plant response rating (0 to 100 scale)) | pest or weed control at 500 g/ha ([5]; 500 g ai/ha, visual injury, 0 to 100 scale (0 no effect, 100 complete control), approx. 10 d, read-out: Plant response rating, Galium) | pest or weed control at 125 g/ha [6, 15] | pest or weed control at 500 g/ha ([6]; 500 g ai/ha) | pest or weed control at 125 g/ha [7, 15] | pest or weed control at 500 g/ha ([7]; 500 g ai/ha) | pest or weed control at 125 g/ha [8, 15] | pest or weed control at 500 g/ha ([8]; 500 g ai/ha) | pest or weed control at 125 g/ha (Kochia (Kochia scoparia) [9]; [15]) | pest or weed control at 500 g/ha (Kochia (Kochia scoparia) [9]; 500 g ai/ha) | pest or weed control at 125 g/ha [10, 15] | pest or weed control at 500 g/ha ([10]; 500 g ai/ha) | pest or weed control at 125 g/ha [11, 15] | pest or weed control at 500 g/ha ([11]; 500 g ai/ha) | pest or weed control at 250 g/ha (rice (Oryra sativa)) | pest or weed control at 250 g/ha [12] | pest or weed control at 250 g/ha [13] | pest or weed control at 250 g/ha [14]
